Key:
[1] = tested on: Staphylococcus aureus (ATCC 43300, MRSA); test: In vivo efficacy in MRSA-infected moth larvae; set-up: species or system Galleria mellonella; details: 24 h after drug administration; vs 10 % DMSO control; rifampicin 0.4 mg/mL, 10 µL
Method: Ethics Committee was obtained for use of human blood for haemolysis studies (approval number […]
G. mellonella larvae were reared in controlled environmental room at Macquarie University, Sydney, Australia at 26 °C and 65% humidity with a 12-hours light/dark cycle. Larvae (~200 mg) were individually injected with 10 µL of chemical into the last right proleg using a 100 μL syringe (Hamilton Ltd). The […]
Each compound was dissolved in DMSO and diluted to final concentrations of 1 µM, 100 µM and 10 mM. We injected 5 larvae for each dilution of each compound.
Larvae injected with different dilutions of DMSO (10-1, 10-3 and 10-5) were included as negative controls.
Following injection, the larvae were incubated at 26 °C and monitored every 24 h for 4 days. Larval performance was assessed according to the G. mellonella Health Index Scoring System.[1] The experiments were repeated three separate times.
Galleria larvae (weighing between 200-250 mg) were infected with […] cells of Staphylococcus aureus (ATCC 43300, MRSA) (suspended in 10 µL PBS) and incubated at 37 °C. Two hours later, 10 µL compounds of either Pt1 or Pt2 (0.4 mM) in 10% DMSO was injected to the other proleg of the larvae.
Larvae injected with 10% DMSO and Rifampicin (0.4 mg/mL) were included as controls. […] Bacterial number was determined by drop plate method. […] Bacterial number was counted after incubation for 24 h.

[2] = set-up: method as in PMID 33469147; details: mouse skin infection models, topical; cited from earlier work

Row | Compound | reduction in CFU (bacterial load per larva) [1] [log] | bacterial load [2]
1 | CO[C@H]1/C=C/O[C@@]2(C)Oc3c(C)c(O)c4c(O)c(c(/C=N/N5CCN(C)CC5)c(O)c4c3C2=O)NC(=O)/C(C)=C\C=C\[C@H](C)[C@H](O)[C@@H](C)[C@@H](O)[C@@H](C)[C@H](OC(C)=O)[C@@H]1C [Rifampicin] | 2 | –
2 | C=C(C)[C@@H]1CCC(C)=C[C@H]1c1c(O)cc(CCCCC)cc1O [cannabidiol] | – | able to reduce bacterial load

From article PMC8596843, “Platinum Cyclooctadiene Complexes with Activity against Gram‐positive Bacteria” (Chemmedchem, 2021)
